# Measured values: paper PMC11514314, “The aquastatin biosynthetic gene cluster encodes a versatile polyketide synthase capable of synthesising heteromeric depsides with diverse alkyl side chains” (Chemical Science, 2024)
# What was measured:
# S. aureus (ATCC 25923) [1] = experiment: Antibacterial ProTOX bioassay, S. aureus; type: cell-based; conditions: Staphylococcus aureus, ATCC25923; S. aureus ATCC 25923, 48 h, 28 °C; read-out: Minimum inhibitory concentration (MIC) S. aureus
# Protocol: (§1) 12. Bioactivity screening.
# (§2) Purified metabolites were dissolved in DMSO to create stock solutions of 10,000 µg/mL. An aliquot from each stock solution was transferred to the first well of Rows B to G on a 96-well microtitre plate and then serially diluted two-fold with DMSO across the 12 wells of the plate to achieve a 2,048-fold concentration gradient. Bioassay medium was added to an aliquot of each diluted solution to achieve a 100-fold dilution in the final bioassay. This […]
# (§3) 0.1 µg/mL in 2% DMSO for yeasts. Row A served as a control with no test compound (indicating no inhibition), and Row H was left uninoculated (serving as a control for complete inhibition).
# (§4) B. subtilis (ATCC 6633), S. aureus (ATCC 25923) and MRSA (ATCC 33592) were used as indicator species for antibacterial activity, employing the ProTOX bioassay platform. A bacterial suspension (50 mL in a 250 mL flask) was prepared in nutrient media by cultivating it for 24 h at 250 rpm and 28 °C. The suspension was diluted to an absorbance of 0.01 absorbance units per mL, and 10 µL aliquots were added to the wells of a 96-well microtitre plate containing the test compounds dispersed in 190 µL of nutrient broth (Amyl) with 10 µL resazurin (12.5 µg/mL). The plates were incubated at 28 °C for 48 h, during which the positive control wells changed colour from blue to light pink. Tetracycline was employed as a control for B. subtilis, while ampicillin was used for S. aureus and MRSA. MIC endpoints were determined visually. Absorbance was measured using a Multiskan Skyhigh Microplate Spectrophotometer (Thermo Fisher Scientific) at 605 nm.
# MRSA (ATCC 33592) [2] = experiment: Antibacterial ProTOX bioassay, MRSA; type: cell-based, methicillin-resistant S. aureus; conditions: Staphylococcus aureus; MRSA ATCC 33592, 48 h, 28 °C; read-out: Minimum inhibitory concentration (MIC) MRSA
# Protocol: as §1, §2, §3, §4
# HIV-1 integrase = tested on: HIV-1 integrase; parameters: method as in PMID 19952429, PMID 15015729; conditions: cited from earlier work
# [3] = tested on: fatty acid synthase II (FAS II); conditions: cited from earlier work
# B. subtilis (ATCC 6633) [4] = experiment: Antibacterial ProTOX bioassay, B. subtilis; type: cell-based; conditions: Bacillus subtilis, ATCC6633; B. subtilis ATCC 6633, 48 h, 28 °C; read-out: Minimum inhibitory concentration (MIC) B. subtilis
# Protocol: as §1, §2, §3, §4
# [5] = tested on: NFF (ATCC PCS-201) human neonatal foreskin fibroblast cells; experiment: Cytotoxicity resazurin assay, NFF cells; type: cell-based; conditions: for IC50: Homo sapiens, neonatal foreskin fibroblast NFF, 96 h, read-out: IC50 NFF
# Protocol: as §1, §2
# (§5) 0.1 µg/mL in 2% DMSO for yeasts. Row A served as a control with no test compound (indicating no inhibition), and Row H was left uninoculated (serving as a control for complete inhibition). […]
# (§6) MIC endpoints were determined visually. Absorbance was measured using a Multiskan Skyhigh […]
# as §6
# (§7) NS-1 (ATCC TIB-18) mouse myeloma and NFF (ATCC PCS -201) human neonatal foreskin fibroblast cells were each inoculated in 96-well microtitre plates (190 µL) at 50,000 cells/mL in DMEM (Dulbecco's Modified Eagle Medium + 10% fetal bovine serum (FBS) + 1% penicillin/streptomycin (10,000 U/mL / 10,000 µg/mL, Life Technologies Cat. No. 15140122), together with resazurin (250 µg/mL; 10 µL) and incubated in 37 °C (5% CO2) incubator. The plates were incubated for 96 h during which time the positive control wells change colour from a blue to pink colour. The absorbance of each well was measured using Multiskan Skyhigh Microplate Spectrophotometer (Thermofisher Scientific) at 605 nm. Sparsomycin was used as a control. The IC50 values were determined using a sigmoidal dose-response model with variable slope in GraphPad Prism 8.
# [6] = tested on: mammalian adenosine triphosphatases; parameters: method as in PMID 8270486; conditions: cited from earlier work
# [7] = tested on: Saccharomyces cerevisiae (ATCC 9763); experiment: Antifungal EuTOX bioassay, S. cerevisiae; type: cell-based; conditions: Saccharomyces cerevisiae, ATCC9763; S. cerevisiae ATCC 9763, 48 h; read-out: Minimum inhibitory concentration (MIC) S. cerevisiae
# Protocol: as §1, §2, §5, §6
# Saccharomyces cerevisiae (ATCC 9763) was used as indicator species for antifungal activity, employing the EuTOX bioassay platform. A yeast suspension (50 mL in a 250 mL flask) was prepared in 1% malt extract broth by cultivating it for 24 h at 250 rpm and 24 °C. The suspension was diluted to absorbances of 0.03 absorbance units per mL and 30 µL were added to the wells of a 96-well microtitre plate containing the test compounds dispersed in 100 µL of malt extract agar with bromocresol green (50 µg/mL). The plates were incubated at 28 °C for 48 h, during which the positive control wells changed colour from blue to yellow. Blasticidin S HCl was used
# [8] = tested on: NS-1 (ATCC TIB-18) mouse myeloma cells; experiment: Cytotoxicity resazurin assay, NS-1 cells; type: cell-based; conditions: for IC50: NS1, mouse myeloma NS-1 ATCC TIB-18, 96 h, read-out: IC50 NS-1
# Protocol: as §1, §2, §5, §6, §6, §7
# [9] = tested on: methicillin-resistant S. aureus (MRSA); parameters: method as in PMID 19952429; conditions: cited from earlier work
# [10] = tested on: NFF (ATCC PCS-201) human neonatal foreskin fibroblast cells; parameters: method as in Crombie et al.[17]; conditions: ref Crombie et al.[17]; cited from earlier work
# B. subtilis (ATCC 6633) [11] = tested on: B. subtilis (ATCC 6633); parameters: method as in Crombie et al.[17]; conditions: ref Crombie et al.[17]; cited from earlier work
# [12] = tested on: NS-1 (ATCC TIB-18) mouse myeloma cells; parameters: method as in Crombie et al.[17]; conditions: mouse myeloma NS-1; ref Crombie et al.[17]; cited from earlier work
# MRSA (ATCC 33592) [13] = tested on: MRSA (ATCC 33592); parameters: method as in Crombie et al.[17]; conditions: ref Crombie et al.[17]; cited from earlier work
# [14] = tested on: Saccharomyces cerevisiae (ATCC 9763); conditions: cited from earlier work; for Minimum inhibitory concentration (MIC) S. cerevisiae: S. cerevisiae ATCC 9763, ref Crombie et al.[17]
# S. aureus (ATCC 25923) [15] = tested on: S. aureus (ATCC 25923); parameters: method as in Crombie et al.[17]; conditions: ref Crombie et al.[17]; cited from earlier work
molecule,measurement,setting,value
"CCCCCCCCCCCCCCCc1cc(O[C@@H]2O[C@H](CO)[C@@H](O)[C@H](O)[C@H]2O)cc(O)c1C(=O)Oc1cc(C)c(C(=O)O)c(O)c1 [1a, Aquastatin A]",MIC,S. aureus (ATCC 25923) [1],12.5 µg/mL
same,MIC,MRSA (ATCC 33592) [2],1.6 µg/mL
same,inhibition of HIV-1 integrase,HIV-1 integrase,inhibit
same,inhibition of fatty acid synthase II (FAS II),[3],inhibit
same,MIC,B. subtilis (ATCC 6633) [4],1.6 µg/mL
same,IC50,[5],> 100 µg/mL
same,inhibition of mammalian adenosine triphosphatases,[6],inhibitor
same,MIC,[7],> 200 µg/mL
same,IC50,[8],> 100 µg/mL
same,antibacterial activity against MRSA,[9],demonstrated antibacterial activity
"CCCCCCCCCCCCCCCc1cc(O)cc(O)c1C(=O)Oc1cc(C)c(C(=O)O)c(O)c1 [1b, Aquastatin B]",MIC,S. aureus (ATCC 25923) [1],> 100 µg/mL
same,MIC,MRSA (ATCC 33592) [2],> 50 µg/mL
same,FAS II inhibitory activity,[3],do not demonstrate
same,MIC,B. subtilis (ATCC 6633) [4],1.6 µg/mL
same,IC50,[5],> 100 µg/mL
same,MIC,[7],> 200 µg/mL
same,IC50,[8],> 50 µg/mL
same,antibacterial activity against MRSA,[9],demonstrated antibacterial activity
"CCCCCCCCCCCCCCCc1cc(O[C@@H]2O[C@H](CO)[C@H](O)[C@H](O)[C@H]2O)cc(O)c1C(=O)OC [1c, aquastatin C]",MIC,S. aureus (ATCC 25923) [1],> 100 µg/mL
same,MIC,MRSA (ATCC 33592) [2],> 100 µg/mL
same,FAS II inhibitory activity,[3],do not demonstrate
same,MIC,B. subtilis (ATCC 6633) [4],> 100 µg/mL
same,IC50,[5],> 100 µg/mL
same,MIC,[7],> 200 µg/mL
same,IC50,[8],> 100 µg/mL
"CCCCC/C=C\C/C=C\CCCCCCCc1cc(O[C@@H]2O[C@H](CO)[C@H](O)[C@H](O)[C@H]2O)cc(O)c1C(=O)Oc1cc(C)c(C(=O)O)c(O)c1 [2a, Geministatin A]",IC50 NFF,[10],>100 µM
same,Minimum inhibitory concentration (MIC) B. subtilis,B. subtilis (ATCC 6633) [11],1.6 µg/mL
same,IC50 NS-1,[12],>50 µM
same,Minimum inhibitory concentration (MIC) MRSA,MRSA (ATCC 33592) [13],6.3 µg/mL
same,Minimum inhibitory concentration (MIC) S. cerevisiae,[14],>200 µg/mL
same,Minimum inhibitory concentration (MIC) S. aureus,S. aureus (ATCC 25923) [15],6.3 µg/mL
"CCCCC/C=C\C/C=C\CCCCCCCc1cc(O)cc(O)c1C(=O)Oc1cc(C)c(C(=O)O)c(O)c1 [2b, Geministatin B]",IC50 NFF,[10],>100 µM
same,Minimum inhibitory concentration (MIC) B. subtilis,B. subtilis (ATCC 6633) [11],0.4 µg/mL
same,IC50 NS-1,[12],>50 µM
same,Minimum inhibitory concentration (MIC) MRSA,MRSA (ATCC 33592) [13],1.6 µg/mL
same,Minimum inhibitory concentration (MIC) S. cerevisiae,[14],>200 µg/mL
same,Minimum inhibitory concentration (MIC) S. aureus,S. aureus (ATCC 25923) [15],3.1 µg/mL
"CCCCCC/C=C\CCCCCCCc1cc(O[C@@H]2O[C@H](CO)[C@H](O)[C@H](O)[C@H]2O)cc(O)c1C(=O)Oc1cc(C)c(C(=O)O)c(O)c1 [4a, Capricostatin A]",MIC,S. aureus (ATCC 25923) [1],3.1 µg/mL
same,MIC,MRSA (ATCC 33592) [2],6.3 µg/mL
same,MIC,B. subtilis (ATCC 6633) [4],1.6 µg/mL
same,IC50,[5],> 100 µg/mL
same,MIC,[7],> 200 µg/mL
same,IC50,[8],> 100 µg/mL
"CCCCCC/C=C\CCCCCCCc1cc(O)cc(O)c1C(=O)Oc1cc(C)c(C(=O)O)c(O)c1 [4b, Capricostatin B]",MIC,S. aureus (ATCC 25923) [1],12.5 µg/mL
same,MIC,MRSA (ATCC 33592) [2],12.5 µg/mL
same,MIC,B. subtilis (ATCC 6633) [4],1.6 µg/mL
same,IC50,[5],> 100 µg/mL
same,MIC,[7],> 200 µg/mL
same,IC50,[8],0.05 µg/mL
"CCCCCC/C=C\CCCCCCCc1cc(O[C@@H]2O[C@H](CO)[C@H](O)[C@H](O)[C@H]2O)cc(O)c1C(=O)OC [4c, capricostatin C]",MIC,S. aureus (ATCC 25923) [1],> 100 µg/mL
same,MIC,MRSA (ATCC 33592) [2],> 100 µg/mL
same,MIC,B. subtilis (ATCC 6633) [4],> 100 µg/mL
same,IC50,[5],6.3 µg/mL
same,MIC,[7],> 200 µg/mL
same,IC50,[8],6.3 µg/mL
"CCCCCC/C=C\CCCCCCCc1cc(O[C@@H]2O[C@H](CO)[C@H](O)[C@H](O)[C@H]2O)cc(O)c1C(=O)O [4d, Capricostatin D]",MIC,S. aureus (ATCC 25923) [1],> 50 µg/mL
same,MIC,MRSA (ATCC 33592) [2],> 50 µg/mL
same,MIC,B. subtilis (ATCC 6633) [4],25 µg/mL
same,IC50,[5],> 100 µg/mL
same,cytotoxicity against NFF cells (in words),[5]; NFF,did not exhibit cytotoxicity
same,MIC,[7],3.1 µg/mL
same,IC50,[8],> 50 µg/mL
same,cytotoxicity against NS-1 cells (in words),[8]; mouse myeloma NS-1,did not exhibit cytotoxicity
"CCCCCC/C=C\CCCCCCCc1cc(O)cc(O)c1C(=O)O [4f, Capricostatin F]",MIC,S. aureus (ATCC 25923) [1],6.3 µg/mL
same,MIC,MRSA (ATCC 33592) [2],6.3 µg/mL
same,MIC,B. subtilis (ATCC 6633) [4],0.8 µg/mL
same,IC50,[5],> 100 µg/mL
same,MIC,[7],> 200 µg/mL
same,IC50,[8],0.05 µg/mL
"Cc1cc(O)cc(O)c1C(=O)O [compound 5, orsellinic acid]",MIC,S. aureus (ATCC 25923) [1],> 100 µg/mL
same,MIC,MRSA (ATCC 33592) [2],> 100 µg/mL
same,MIC,B. subtilis (ATCC 6633) [4],> 100 µg/mL
same,IC50,[5],> 100 µg/mL
same,MIC,[7],> 200 µg/mL
same,IC50,[8],> 100 µg/mL
"CCCCCCCCCCCCCCCc1cc(O)cc(O)c1 [compound 6, adipostatin]",MIC,S. aureus (ATCC 25923) [1],> 100 µg/mL
same,MIC,MRSA (ATCC 33592) [2],25 µg/mL
same,MIC,B. subtilis (ATCC 6633) [4],> 100 µg/mL
same,IC50,[5],6.3 µg/mL
same,MIC,[7],> 200 µg/mL
same,IC50,[8],6.3 µg/mL
geministatin D,antifungal activity against S. cerevisiae (in words),[14]; previously reported,displayed antifungal activity
